Experimental data as given in patent US6375926B1, “Labelled elastase inhibitors” (Amersham International PLC, priority 1996, dated 2002).
Like-named read-outs stand apart in the source and are kept apart here.

How the values were obtained:
[1] = biological target: T1, HLE (human leucocyte elastase) (Homo sapiens, UniProt P08246); experiment: Measurement of HLE inhibition potency (kinact/Ki); assay type: biochemical
T1 sequence (P08246 30-267): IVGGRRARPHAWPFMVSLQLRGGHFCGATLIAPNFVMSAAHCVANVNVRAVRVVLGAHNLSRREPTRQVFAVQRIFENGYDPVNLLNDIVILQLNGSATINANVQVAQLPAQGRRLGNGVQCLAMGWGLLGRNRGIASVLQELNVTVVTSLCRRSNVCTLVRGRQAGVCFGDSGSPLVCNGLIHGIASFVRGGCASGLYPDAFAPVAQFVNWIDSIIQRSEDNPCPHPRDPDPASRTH
Procedure: Inhibitor potency against HLE is described by the parameter kinact/Ki as previously reported [Knight et al., Biochem., 8160-8170, (1992)]. Lyophilised enzyme was reconstituted with TrisHCl buffer, 100 mM, 0.5M NaCl at 0.05 units/ml (approximately nanomolar concentration) in a final reaction volume of 1 ml to which was added methoxysucc-ala-ala-pro-val-pNA substrate (1 mM) and the elastase inhibitor dissolved in DMSO. The reaction was monitored by detecting the change of absorbance at 410 nm (hydrolysis of the substrate releasing p-nitroaniline) over a timescale of 25 minutes. Values of kinact/Ki were estimated according to the Knight et al method.

[2] = system: isolated human white cells (granulocytes; monocytes + lymphocytes); experiment: In vitro cell uptake in isolated human white cells; assay type: cell-based; details: for selectivity for granulocytes over a mixture of monocytes/lymphocytes: approximately equivalent numbers of monocytes/lymphocytes and granulocytes present; for % uptake in Gran. (granulocytes), WHITE CELLS / % uptake in Mon. (monocytes + lymphocytes), WHITE CELLS: isolated human white cells, 30 minutes at 37° C., radiolabelled compound
Procedure: Fresh blood (30-120 ml) was anticoagulated with 1.5% ACD solution and sedimented by addition of 2 ml Hespan per 10 ml blood for 90 minutes at room temperature. The leucocyte rich platelet rich plasma supernatant was removed and centrifuged at 150 g for 5 minutes, yielding a leucocyte rich pellet and platelet rich plasma (PRP). The PRP was centrifuged at 4000 g to pellet the platelets leaving a cell free plasma (CFP). The leucocyte pellet was resuspended in a 50:50 mixture of HBSS and CFP and incubated with the radioactive compound for 30 minutes at 37° C. Free radioactive material was then removed from the cells by addition of an excess of HBSS:CFP and centrifugation of the leucocytes at 150 g for 7 minutes. The supernatant and cell pellet were taken for radioactive counting for calculation of percentage cell uptake. The distribution of radioactivity within the cell pellet was assessed by separation of the cell types using Percoll density gradient centrifugation (38%, 55% and 73% Percoll in HBSS step gradients). The residual plasma and free activity was recovered from the top of the gradient, the mononuclear cells (lymphocytes and monocytes) from the interface between 38% and 55%, and the granulocytes were recovered from the interface between 55% and 73% Percoll.

[3] = system: mixed human red/white cells (granulocytes, monocytes + lymphocytes, erythrocytes); experiment: In vitro cell uptake in mixed human red/white cells; assay type: cell-based; details: radiolabelled compound
Procedure: The radioactive compound was also incubated with an isolated leucocyte preparation to which an erythrocyte fraction had been added back. The packed erythrocytes obtained after blood sedimentation were washed twice with HBSS and then resuspended in their original blood volume with HBSS. Leucocytes obtained from 30 ml blood were resuspended in 0.5 ml erythrocyte suspension and 0.5 ml CFP. The cell suspension was then incubated with compound as above. Analysis of the distribution of activity in the cell pellet in the presence of red blood cells was carried out using Ficoll-Hypaque discontinuous density gradients (densities 1.04, 1.077 and 1.119 g/ml Histopaque steps).

[4] = system: human whole blood (granulocytes, monocytes + lymphocytes, erythrocytes); experiment: In vitro cell uptake in human whole blood; assay type: cell-based; details: 37° C. for 1 hour, radiolabelled compound
Procedure: The radioactive compound was added to 1 ml whole blood anticoagulated with ACD and incubated at 37° C. for 1 hour. The blood was diluted with HBSS and the cellular component separated by centrifugation. Distribution of activity within the cellular pellet was assessed by separation of cell fractions on Ficoll-Hypaque gradients as above.

[5] = system: E. coli infected rats (experimental abscess); experiment: In vivo biodistribution in rats bearing experimental abscesses, direct intravenous injection; design: species or system male Wistar rats; details: for Relative conc. In infected area / Infected/normal / Infected/blood: directly injected i.v.; for Relative conc. In infected area: % injected dose in a % body weight; for Infected/normal: ratio of % id/g infected area to contralateral thigh; for Infected/blood: ratio of %/g infected area to blood
Procedure: (§1) The model: into the right gracilis (thigh) muscle of male Wistar rats (250-325 g) were injected 1 ml/kg of an E. coli suspension containing >> 5×10^8/ml organisms.
(§2) Validation: the model was validated for use in the development of diagnostic imaging agents of infection/inflammation by the intravenous injection of ^99mTc-HMPAO ex-vivo labelled human wbc or ^67Ga-citrate when the abscesses were 24 hours old. Animals were dissected between 4 and 24 hours after injection. ^99mTc-labelled red blood cells were used as a negative control.
The animals were sacrificed at either 4 or 24 hours post injection and relevant tissues dissected.

[6] = system: E. coli infected rats (experimental abscess); experiment: In vivo biodistribution of ex vivo labelled human leucocytes in E. coli infected rats; design: species or system male Wistar rats; details: ex vivo labelled human leucocytes injected i.v.
Procedure: as §1, §2
Screening of Ex vivo labelled human leucocytes in E. coli infected rats: A mixed population of human leucocytes was incubated with elastase inhibitor for 30 minutes at 37° C. The cells were then spun down and resuspended in a known volume of rat plasma for intravenous injection into rats bearing a 24 hour old abscess. Animals were dissected at 4 and 24 hours post injection.

[7] = In vivo stability of iodinated HLE inhibitors (thyroid uptake); design: species or system male Wistar rats; details: i.v. injection
Procedure: The in vivo stability of radioiodinated HLE inhibitors was monitored by determination of the percentage uptake in the thyroid as a function of time after administration. Thus radioiodinated compounds and ^123I free iodide were injected into male Wistar rats. The percentage of injected dose distributing to the thyroid was calculated by dissection at 4 and 24 hours post injection and counting.

[8] = system: E. coli infected rats (experimental abscess); experiment: In vivo biodistribution in rats bearing experimental abscesses, direct intravenous injection; design: species or system male Wistar rats; details: 48 hrs

SMILES	selectivity for granulocytes over a mixture of monocytes/lymphocytes [2]	% uptake in Gran. (granulocytes), WHITE CELLS [2] [%]	% uptake in Mon. (monocytes + lymphocytes), WHITE CELLS [2] [%]	% uptake in Eryth. (erythrocytes), WHITE AND RED CELLS [3] [%]	% uptake in Gran. (granulocytes), WHITE AND RED CELLS [3] [%]	% uptake in Mon. (monocytes + lymphocytes), WHITE AND RED CELLS [3] [%]	% uptake in Eryth. (erythrocytes), WHOLE BLOOD [4] [%]	% uptake in Gran. (granulocytes), WHOLE BLOOD [4] [%]	% uptake in Mon. (monocytes + lymphocytes), WHOLE BLOOD [4] [%]	Relative conc. In infected area ([5]; 4 hrs post injection)	Infected/normal ([5]; 4 hrs post injection)	Infected/blood ([5]; 4 hrs post injection)	Relative conc. In infected area ([5]; 24 hrs post injection)	Infected/normal ([5]; 24 hrs post injection)	Infected/blood ([5]; 24 hrs post injection)	Infected/blood ([6]; 4 hrs post injection)	Infected/normal ([6]; 4 hrs post injection)	Infected/blood ([6]; 24 hrs post injection)	Infected/normal ([6]; 24 hrs post injection)	% dose in Thyroid ([7]; 4 hours) [% dose]	also measured
CCC1(CC)C(=O)N(C(=O)NCc2ccc(I)cc2)C1Oc1ccc(C(=O)N2CCN(C)CC2)cc1 (racemic) [Compound 4, 4-[4-[[(4-Methyl)piperazin-1-yl]carbonyl]phenoxy]-1-[(4-iodo)benzylaminocarbonyl]-3,3-diethyl-2-azetidinone]	some degree of selectivity for granulocytes	25.7	2.0	14.2	14.4	3.4	6.5	5.0	3.9	0.51	1.3	0.62	0.12	1.3	0.51	0.61	1.5	0.75	1.9	0.1	kinact/KI ([1]; as listed in Table 24 beside the radiolabelled compounds, read-out: kinact/Ki (human elastase)): 32000 M⁻¹ s⁻¹; kinact/KI ([1]; measured for non-radioactive iodine-labelled compounds and unlabelled chelate conjugates, read-out: Potency (M/sec), kinact/Ki): 32000 M⁻¹ s⁻¹; uptake in the infected region compared with the ^99mTc-rbc control ([5]; ^123I-labelled, rat model of inflammation/infection): significantly better uptake in the infected region; % dose in Thyroid ([7]; 24 hours): 0.9 % dose
CCC[C@@H](NC(=O)N1C(=O)C(CC)(CC)[C@@H]1Oc1ccc(C(=O)N2CCN(C)CC2)cc1)c1ccc(I)cc1 [Compound 24, 4S-[4-[[(4-methyl)piperazin-1-yl]carbonyl]phenoxy]-1-[(R-α-n-propyl)-(4-iodo)benzylaminocarbonyl]-3,3-diethyl-2-azetidinone]	some degree of selectivity for granulocytes	83.2	3.4	41.7	40.4	4.0	16.6	24.3	13.6	0.38	1.3	1.3	0.16	1.1	0.9	0.9	1.3	0.9	1.3	0.2	kinact/Ki (human elastase) ([1]; as listed in Table 24 beside the radiolabelled compounds): 2830000; Potency (1/(M·s)), kinact/Ki ([1]; measured for non-radioactive iodine-labelled compounds and unlabelled chelate conjugates): 2.83e+06 M⁻¹ s⁻¹; Relative conc. In infected area ([6]; 4 hrs post injection): 0.53; Relative conc. In infected area ([6]; 24 hrs post injection): 0.20; % dose in Thyroid ([7]; 24 hours): 0.6 % dose
O=C([O-])CC(O)(CC(=O)[O-])C(=O)[O-].[67Ga+3] [^67Ga-citrate, ^67Ga citrate, reference compound]	–	–	–	–	–	–	–	–	–	–	–	–	0.9	2.2	3.9	–	–	–	–	–	Infected/blood [8]: 9.7; Infected/normal [8]: 3.9; Relative conc. In infected area [8]: 1.1
